This note sets out measurements from patent US9751885B2, “Cyclopropanamine compound and use thereof” (Takeda Pharmaceutical Company Limited, priority 2012, dated 2017).

Where a name gives a salt, the structure may show the parent alone. Some results are limits rather than exact numbers.

Assay [1] deals with human LSD1(172-833) (Homo sapiens (Human), UniProt O60341). The assay can be described thus: Measurement of LSD1 inhibitory activity (time-resolved fluorescence, biotin-histone H3 mono methylated K4 peptide). Type of assay: biochemical. The method, then:
When the turbidity reached 500 Klett units, the culture temperature was changed to 16° C., IPTG (Isopropyl β-D-1-thiogalactopyranoside) having a final concentration of 0.5 mM was added to induce expression, and the cells were cultured further for 14 hr. The culture medium was centrifuged at 6,000 g for 15 min, and Escherichia coil pellets were recovered.
Using Branson ultrasonic disintegrator, the suspension was disrupted by ultrasonication for 3 min, and centrifuged at 33,000 g for 60 min, and the supernatant was recovered. […] It was concentrated to 10 mL with AmiconUltra (NWCO 30K) (Millipore Japan), and purified with HiLoad 26/60 Superdex 200 pg column (GE Healthcare) equilibrated with Buffer A to give hLSD1 purified product (8.4 mg). The protein concentration of hLSD1 was measured by BCA Protein Assay Kit (Thermo Fisher Scientific K.K.) using bovine serum albumin as the standard.
(5) Measurement of LSD1 Inhibitory Activity
After reaction at room temperature for 5 min, 1 mM 2-PCPA solution was added 5 μL to terminate the reaction. A detection solution ([…] potassium fluoride, 0.1% BSA) containing europium-labeled anti-histone H3 antibody (Wako Pure Chemical Industries, Ltd.) and Streptavidin-XL665 (Cisbio) was further added by 5 μL, and the mixture was left standing for 60 min.

The target in assay [2] is MAO-A enzyme (Homo sapiens (Human), UniProt P21397). The assay can be described thus: Measurement of MAO-A inhibitory activity (MAO-Glo Assay). Format: biochemical.
MAO-A enzyme, sequence (P21397 whole entry): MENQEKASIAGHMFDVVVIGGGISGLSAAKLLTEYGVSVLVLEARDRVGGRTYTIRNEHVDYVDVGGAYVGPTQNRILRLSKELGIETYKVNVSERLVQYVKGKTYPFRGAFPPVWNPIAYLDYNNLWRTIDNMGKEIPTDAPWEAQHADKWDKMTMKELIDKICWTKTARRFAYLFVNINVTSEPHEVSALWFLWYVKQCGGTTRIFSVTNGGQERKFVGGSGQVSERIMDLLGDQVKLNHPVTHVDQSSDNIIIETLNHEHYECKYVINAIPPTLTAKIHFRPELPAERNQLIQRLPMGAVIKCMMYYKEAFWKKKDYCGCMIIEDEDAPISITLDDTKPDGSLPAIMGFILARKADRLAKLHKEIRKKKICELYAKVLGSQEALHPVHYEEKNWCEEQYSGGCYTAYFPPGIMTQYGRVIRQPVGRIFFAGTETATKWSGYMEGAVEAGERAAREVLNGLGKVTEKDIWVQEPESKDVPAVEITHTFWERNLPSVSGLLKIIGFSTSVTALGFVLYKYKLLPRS
Procedure: The MAO-A inhibitory activity evaluation described below followed the protocol of MAO-Glo (registered trademark) Assay of Promega KK.
A test compound dissolved in 4% DMSO was added by 12.5 μL to 25 μL reaction solution (100 mM HEPES (pH 7.5), 5% glycerol) containing 400 ng of MAO-A enzyme (Sigma-Aldrich Co. LLC.), and the mixture was reacted at room temperature for 10 min. […] After reaction at room temperature for 60 min, Luciferine detection reagent (Promega KK) (50 μL) was added to terminate the reaction. After reaction at room temperature for min with stirring, the luminescence was measured by Envision (PerkinElmer). The MAO-A inhibitory rate (%) of the test compound was calculated by the following formula. inhibitory rate(%)=(1−(test compound count−blank)÷(control−blank))×100
The count of the MAO-A enzyme reaction mixture under compound non-addition conditions is indicated as control, and the count under compound non-addition and MAO-A enzyme non-addition conditions is indicated as blank.
Assay [3] concerns the target MAO-B enzyme (Homo sapiens (Human), UniProt P27338). In words: Measurement of MAO-B inhibitory activity (MAO-Glo Assay).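 Further: luminescence read-out, compound preincubated 10 min with enzyme then reacted 60 min at room temperature, inhibition relative to enzyme reaction without compound, blank lacking enzyme and compound.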 As to conditions: read-out: MAO-B IC50 value.

MAO-B enzyme, sequence (P27338 whole entry): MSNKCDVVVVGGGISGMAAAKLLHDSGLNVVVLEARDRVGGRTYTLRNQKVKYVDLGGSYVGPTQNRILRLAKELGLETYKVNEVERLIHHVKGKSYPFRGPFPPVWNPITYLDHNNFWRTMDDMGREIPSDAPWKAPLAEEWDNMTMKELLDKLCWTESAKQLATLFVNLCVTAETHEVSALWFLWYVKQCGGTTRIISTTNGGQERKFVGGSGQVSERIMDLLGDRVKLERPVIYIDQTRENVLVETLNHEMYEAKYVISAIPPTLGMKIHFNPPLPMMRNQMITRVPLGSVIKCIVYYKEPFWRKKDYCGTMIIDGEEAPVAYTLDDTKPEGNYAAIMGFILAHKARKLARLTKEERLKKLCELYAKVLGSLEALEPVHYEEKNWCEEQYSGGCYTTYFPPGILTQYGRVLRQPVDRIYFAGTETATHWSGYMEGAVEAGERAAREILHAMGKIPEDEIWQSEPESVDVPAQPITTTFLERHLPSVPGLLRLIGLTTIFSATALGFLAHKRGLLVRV

Turning to `O=C(NCc1cccc(Oc2cnccn2)c1)c1ccc([C@@H]2C[C@H]2NCC2CC2)cc1` (relative stereo) [Example 29, 4-(trans-2-((cyclopropylmethyl)amino)cyclopropyl)-N-(3-(pyrazin-2-yloxy)benzyl)benzamide bis(trifluoroacetate)], the results for the IC50 in assay [1], in assay [2] and in assay [3] were less than 0.1 µM, 7.3 µM and more than 10 µM, respectively.

With `O=C(NCc1cccc2c1OCCO2)c1ccc([C@@H]2C[C@H]2NCC2CC2)cc1` (relative stereo) [Example 30, 4-(trans-2-((cyclopropylmethyl)amino)cyclopropyl)-N-(2,3-dihydro-1,4-benzodioxin-5-ylmethyl)benzamide trifluoroacetate], the IC50 in assay [1] is less than 0.1 µM; in assay [2], more than 10 µM; in assay [3] it was more than 10 µM.

Turning to `CC(C)(C)c1ccc(CN[C@@H]2C[C@H]2c2ccc(C(=O)NCc3ccccc3)cc2)cc1` (relative stereo) [Example 31, N-benzyl-4-(trans-2-((4-tert-butylbenzyl)amino)cyclopropyl)benzamide trifluoroacetate], the IC50 in assay [1] was less than 0.1 µM; in assay [2], 4 µM; in assay [3] it was more than 10 µM.

Consider `COc1ccccc1CN[C@@H]1C[C@H]1c1ccc(C(=O)NCc2ccccc2)cc1` (relative stereo) [Example 32, N-benzyl-4-(trans-2-((2-methoxybenzyl)amino)cyclopropyl)benzamide trifluoroacetate], for which the IC50 in assay [1] was less than 0.1 µM; in assay [2], more than 10 µM; in assay [3] it was more than 10 µM.

Take `Cc1ccccc1CN[C@@H]1C[C@H]1c1ccc(C(=O)NCc2ccccc2)cc1` (relative stereo) [Example 33, N-benzyl-4-(trans-2-((2-methylbenzyl)amino)cyclopropyl)benzamide trifluoroacetate]: the half-maximal inhibitory concentration (IC50) in assay [1] is less than 0.1 µM; in assay [2], more than 10 µM; in assay [3] it was more than 10 µM.

Turning to `Cc1ccc(CN[C@@H]2C[C@H]2c2ccc(C(=O)NCc3ccccc3)cc2)cc1` (relative stereo) [Example 34, N-benzyl-4-(trans-2-((4-methylbenzyl)amino)cyclopropyl)benzamide trifluoroacetate], the results for the IC50 in assay [1], in assay [2] and in assay [3] were less than 0.1 µM, 4.4 µM and more than 10 µM, respectively.

Regarding `COc1ccc(CN[C@@H]2C[C@H]2c2ccc(C(=O)NCc3ccccc3)cc2)cc1` (relative stereo) [Example 35, N-benzyl-4-(trans-2-((4-methoxybenzyl)amino)cyclopropyl)benzamide trifluoroacetate], the IC50 in assay [1] was less than 0.1 µM; in assay [2], 3.1 µM; in assay [3] it was more than 10 µM.

As to `N#Cc1ccc(CN[C@@H]2C[C@H]2c2ccc(C(=O)NCc3ccccc3)cc2)cc1` (relative stereo) [Example 36, N-benzyl-4-(trans-2-((4-cyanobenzyl)amino)cyclopropyl)benzamide trifluoroacetate], the figures for the IC50 in assay [1], in assay [2] and in assay [3] were less than 0.1 µM, 4.3 µM and more than 10 µM, respectively.

With `COc1cccc(CN[C@@H]2C[C@H]2c2ccc(C(=O)NCc3ccccc3)cc2)c1` (relative stereo) [Example 37, N-benzyl-4-(trans-2-((3-methoxybenzyl)amino)cyclopropyl)benzamide trifluoroacetate], the IC50 is less than 0.1 µM in assay [1], 4.5 µM in assay [2] and more than 10 µM in assay [3].

As to `O=C(NCc1ccccc1)c1ccc([C@@H]2C[C@H]2NCc2ccc(C(F)(F)F)cc2)cc1` (relative stereo) [Example 38, N-benzyl-4-(trans-2-((4-(trifluoromethyl)benzyl)amino)cyclopropyl)benzamide trifluoroacetate], the results for the IC50 in assay [1], in assay [2] and in assay [3] were less than 0.1 µM, 2.2 µM and more than 10 µM, respectively.

With `O=C(NCc1ccccc1)c1ccc([C@@H]2C[C@H]2NCc2ccccc2F)cc1` (relative stereo) [Example 39, N-benzyl-4-(trans-2-((2-fluorobenzyl)amino)cyclopropyl)benzamide trifluoroacetate], the values for the IC50 in assay [1], in assay [2] and in assay [3] were less than 0.1 µM, 6.6 µM and more than 10 µM, respectively.

Turning to `COc1ccc(F)c(CN[C@@H]2C[C@H]2c2ccc(C(=O)NCc3ccccc3)cc2)c1` (relative stereo) [Example 40, N-benzyl-4-(trans-2-((2-fluoro-5-methoxybenzyl)amino)cyclopropyl)benzamide trifluoroacetate], the results for the half-maximal inhibitory concentration (IC50) in assay [1], in assay [2] and in assay [3] were less than 0.1 µM, more than 10 µM and more than 10 µM, respectively.

With `COc1cc(Cl)ccc1CN[C@@H]1C[C@H]1c1ccc(C(=O)NCc2ccccc2)cc1` (relative stereo) [Example 41, N-benzyl-4-(trans-2-((4-chloro-2-methoxybenzyl)amino)cyclopropyl)benzamide trifluoroacetate], the IC50 in assay [1] was less than 0.1 µM; in assay [2] it was 6.6 µM; in assay [3], more than 10 µM.

With `CN(C)c1ccccc1CN[C@@H]1C[C@H]1c1ccc(C(=O)NCc2ccccc2)cc1` (relative stereo) [Example 42, N-benzyl-4-(trans-2-((2-(dimethylamino)benzyl)amino)cyclopropyl)benzamide bis(trifluoroacetate)], the IC50 in assay [1] was less than 0.1 µM; in assay [2] it was 3.4 µM; in assay [3] it was more than 10 µM.

Regarding `N#Cc1cccc(CN[C@@H]2C[C@H]2c2ccc(C(=O)NCc3ccccc3)cc2)c1` (relative stereo) [Example 43, N-benzyl-4-(trans-2-((3-cyanobenzyl)amino)cyclopropyl)benzamide trifluoroacetate], the IC50 was less than 0.1 µM in assay [1], 1.5 µM in assay [2] and more than 10 µM in assay [3].

As for `O=C1COc2ccc(CN[C@@H]3C[C@H]3c3ccc(C(=O)NCc4ccccc4)cc3)cc2N1` (relative stereo) [Example 44, N-benzyl-4-(trans-2-(((3-oxo-3,4-dihydro-2H-1,4-benzoxazin-6-yl)methyl)amino)cyclopropyl)benzamide trifluoroacetate], the figures for the IC50 in assay [1], in assay [2] and in assay [3] were less than 0.1 µM, 1.3 µM and more than 10 µM, respectively.

In the case of `O=C(NCc1ccccc1)c1ccc([C@@H]2C[C@H]2NCc2ccc(-c3cnccn3)cc2)cc1` (relative stereo) [Example 45, N-benzyl-4-(trans-2-((4-(pyrazin-2-yl)benzyl)amino)cyclopropyl)benzamide bis(trifluoroacetate)], the figures for the IC50 in assay [1], in assay [2] and in assay [3] were less than 0.1 µM, 1.7 µM and more than 10 µM, respectively.

Turning to `O=C(NCc1ccccc1)c1ccc([C@@H]2C[C@H]2NCc2cccs2)cc1` (relative stereo) [Example 46, N-benzyl-4-(trans-2-((2-thienylmethyl)amino)cyclopropyl)benzamide trifluoroacetate], the values for the IC50 in assay [1], in assay [2] and in assay [3] were less than 0.1 µM, 1.8 µM and more than 10 µM, respectively.

As for `Cc1ccsc1CN[C@@H]1C[C@H]1c1ccc(C(=O)NCc2ccccc2)cc1` (relative stereo) [Example 47, N-benzyl-4-(trans-2-(((3-methyl-2-thienyl)methyl)amino)cyclopropyl)benzamide trifluoroacetate], the IC50 is less than 0.1 µM in assay [1], 5 µM in assay [2] and more than 10 µM in assay [3].

For orientation: IC50 means the concentration needed to halve the response being measured.
